Source: patent US11331299B2, “Medicinal use of serrulatane diterpenes” (The University of Sydney, priority 2016, dated 2022)
Read-outs that look alike come from different tables or passages of the source.

Test system: 280 human cancer cell lines
Test: OncoPanel cell proliferation assay (10-day)
Type: cell-based
Settings: Homo sapiens; for IC50: read-out: Cell Count IC50; for EC50: read-out: Cell Count EC50
[1] = SW872, SW872, Soft Tissue - Sarcoma
[2] = SW 954, SW954, Female GU - Vulva
[3] = SW982, SW982, Soft Tissue - Sarcoma
[4] = SW1353, SW1353, Soft Tissue - Osteosarcoma
[5] = TE 125.T, Soft Tissue - Sarcoma
[6] = TE 381.T, Soft Tissue - Sarcoma
[7] = U2OS, Soft Tissue - Osteosarcoma
[8] = U-118-MG, U-118 MG, CNS - Glioma
[9] = VA-ES-BJ, Soft Tissue - Sarcoma
[10] = WM 266-4, WM-266-4, Skin (Melanoma)

`CC(C)=CCC[C@@H]1C(O)Oc2c(C)cc(O)c3c2[C@H]1CC[C@H]3C` (some centres unmarked) [Compound 2, 5,18-epoxyserrulat-14-en-8,18-diol] gave an IC50 (SW837, SW837, Colon) of over 30 µM, an EC50 [1] of 4.46 µM and a GI50 (SW872, SW872, Soft Tissue - Sarcoma, read-out: Cell Count GI50) of 4.45 µM. For the same compound, the IC50 [1] was 4.46 µM, the EC50 (SW900, SW900, Lung - SCLC) was 26.6 µM and the GI50 (SW900, SW900, Lung - SCLC, read-out: Cell Count GI50) was 26.7 µM. For the same compound, the IC50 (SW900, SW900, Lung - SCLC) was 26.8 µM, the EC50 (SW948, SW948, Colon) was 14.7 µM and the GI50 (SW948, SW948, Colon, read-out: Cell Count GI50) was 14.5 µM. For the same compound, the IC50 (SW948, SW948, Colon) was 14.7 µM, the EC50 [2] was over 30 µM and the GI50 (SW 954, SW954, Female GU - Vulva, read-out: Cell Count GI50) was over 30 µM. The IC50 [2] was over 30 µM, the EC50 [3] was 7.63 µM and the GI50 (SW982, SW982, Soft Tissue - Sarcoma, read-out: Cell Count GI50) was 7.53 µM. For the same compound, the IC50 [3] was 7.63 µM, the EC50 (SW1088, SW1088, CNS - Glioma) was 10.7 µM and the GI50 (SW1088, SW1088, CNS - Glioma, read-out: Cell Count GI50) was 10.5 µM. The IC50 (SW1088, SW1088, CNS - Glioma) was 10.7 µM, the EC50 [4] was 9.49 µM and the GI50 (SW1353, SW1353, Soft Tissue - Osteosarcoma, read-out: Cell Count GI50) was 9.46 µM. For the same compound, the IC50 [4] was 9.49 µM, the EC50 (SW1417, SW1417, Colon) was 22.8 µM and the GI50 (SW1417, SW1417, Colon, read-out: Cell Count GI50) was 21.8 µM. The IC50 (SW1417, SW1417, Colon) was 22.8 µM, the EC50 (SW1463, SW1463, Colon) was over 30 µM and the GI50 (SW1463, SW1463, Colon, read-out: Cell Count GI50) was over 30 µM. It also gave an IC50 (SW1463, SW1463, Colon) of over 30 µM, an EC50 (SW1783, SW1783, CNS - Glioma) of 10.2 µM and a GI50 (SW1783, SW1783, CNS - Glioma, read-out: Cell Count GI50) of 10.5 µM. It also gave an IC50 (SW1783, SW1783, CNS - Glioma) of 11 µM, an EC50 (SW-403, SW403, Colon) of over 30 µM and a GI50 (SW-403, SW403, Colon, read-out: Cell Count GI50) of over 30 µM. The IC50 (SW-403, SW403, Colon) was over 30 µM, the EC50 (SW-620, SW620, Colon) was 13.2 µM and the GI50 (SW-620, SW620, Colon, read-out: Cell Count GI50) was 13.2 µM. The IC50 (SW-620, SW620, Colon) was 13.2 µM, the EC50 (SiHa, Female GU - Cervix) was 28.3 µM and the GI50 (SiHa, Female GU - Cervix, read-out: Cell Count GI50) was 25.8 µM. For the same compound, the IC50 (SiHa, Female GU - Cervix) was 28.3 µM, the EC50 (T24, Bladder) was 20.4 µM and the GI50 (T24, Bladder, read-out: Cell Count GI50) was 20.3 µM. For the same compound, the IC50 (T24, Bladder) was 20.4 µM, the EC50 (T47D, Breast) was 10.2 µM and the GI50 (T47D, Breast, read-out: Cell Count GI50) was 9.4 µM. For the same compound, the IC50 (T47D, Breast) was 10.2 µM, the EC50 (T98G, CNS - Glioma) was 19.1 µM and the GI50 (T98G, CNS - Glioma, read-out: Cell Count GI50) was 19 µM. It also gave an IC50 (T98G, CNS - Glioma) of 19.1 µM, an EC50 (TCC-SUP, TCCSUP, Bladder) of 8.2 µM and a GI50 (TCC-SUP, TCCSUP, Bladder, read-out: Cell Count GI50) of 7.78 µM. It also gave an IC50 (TCC-SUP, TCCSUP, Bladder) of 8.2 µM, an EC50 [5] of over 30 µM and a GI50 (TE 125.T, Soft Tissue - Sarcoma, read-out: Cell Count GI50) of 28.7 µM. The IC50 [5] was over 30 µM, the EC50 [6] was 8.14 µM and the GI50 (TE 381.T, Soft Tissue - Sarcoma, read-out: Cell Count GI50) was 7.99 µM. It also gave an IC50 [6] of 8.14 µM, an EC50 (TF-1, Leukemia) of 2.75 µM and a GI50 (TF-1, Leukemia, read-out: Cell Count GI50) of 2.44 µM. For the same compound, the IC50 (TF-1, Leukemia) was 2.75 µM, the EC50 (THP-1, Thp1, Leukemia) was 5.32 µM and the GI50 (THP-1, Thp1, Leukemia, read-out: Cell Count GI50) was 5.61 µM. For the same compound, the IC50 (THP-1, Thp1, Leukemia) was 5.69 µM, the EC50 (TUR, Lymphoma) was 2.63 µM and the GI50 (TUR, Lymphoma, read-out: Cell Count GI50) was over 30 µM. For the same compound, the IC50 (TUR, Lymphoma) was over 30 µM, the EC50 [7] was 12.7 µM and the GI50 (U2OS, Soft Tissue - Osteosarcoma, read-out: Cell Count GI50) was 12.7 µM. The IC50 [7] was 12.7 µM, the EC50 (U138-MG, U-138MG, CNS - Glioma) was over 30 µM and the GI50 (U138-MG, U-138MG, CNS - Glioma, read-out: Cell Count GI50) was over 30 µM. It also gave an IC50 (U138-MG, U-138MG, CNS - Glioma) of over 30 µM, an EC50 (U266B1, Myeloma) of 9.15 µM and a GI50 (U266B1, Myeloma, read-out: Cell Count GI50) of 9.01 µM. The IC50 (U266B1, Myeloma) was 9.28 µM, the EC50 (U-87 MG, CNS - Glioma) was over 30 µM and the GI50 (U-87 MG, CNS - Glioma, read-out: Cell Count GI50) was over 30 µM. For the same compound, the IC50 (U-87 MG, CNS - Glioma) was over 30 µM, the EC50 [8] was 29.6 µM and the GI50 (U-118-MG, U-118 MG, CNS - Glioma, read-out: Cell Count GI50) was 29.4 µM. It also gave an IC50 [8] of 29.6 µM, an EC50 (UMUC3, UM-UC-3, Bladder) of 5.3 µM and a GI50 (UMUC3, UM-UC-3, Bladder, read-out: Cell Count GI50) of 5.74 µM. It also gave an IC50 (UMUC3, UM-UC-3, Bladder) of 5.75 µM, an EC50 [9] of over 30 µM and a GI50 (VA-ES-BJ, Soft Tissue - Sarcoma, read-out: Cell Count GI50) of over 30 µM. The IC50 [9] was over 30 µM, the EC50 [10] was 6.39 µM and the GI50 (WM 266-4, WM-266-4, Skin (Melanoma), read-out: Cell Count GI50) was 6.25 µM. It also gave an IC50 [10] of 6.39 µM, an EC50 (WiDr, Colon) of 14.5 µM and a GI50 (WiDr, Colon, read-out: Cell Count GI50) of 14.4 µM. It also gave an IC50 (WiDr, Colon) of 14.5 µM, an EC50 (Y79, Eye) of 6.57 µM and a GI50 (Y79, Eye, read-out: Cell Count GI50) of 7.41 µM. For the same compound, the IC50 (Y79, Eye) was 7.65 µM, the EC50 (YAPC, Pancreas) was 13 µM and the GI50 (YAPC, Pancreas, read-out: Cell Count GI50) was 12.9 µM. For the same compound, the IC50 (YAPC, Pancreas) was 13 µM and the GI50 (strong: J-RT3-T3-5, Jurkat, MOLT-3, NALM-6, TF-1, RPMI8226, SKO-007, RD, read-out: GI50) was 1 to 2.96 µM.
